The text below walks through data of patent US20080292584A1 (priority 2005, published 2008).

By inhibition is commonly meant the drop in the measured response relative to a control, in per cent.

Data set [1] relates to CYP2B6. Briefly: Induction/inhibition of CYP2B6 activity in cryopreserved human hepatocytes (S-mephenytoin). As to conditions: 1 mM Phenobarbital; each hepatocyte donor. From the text: (§1) Hepatocytes from three human donors were obtained from a cryopreserved hepatocyte bank (In Vitro Technologies, Inc., USA). After thawing, viable hepatocytes were transferred to collagen-coated 48-well plates for attachment in plating medium (DMEM stock (Dulbecco's modified Eagle's medium, supplemented with bovine serum albumin, fructose, N-(2-hydroxyethyl)piperazine-N′-(2-ethanesulfonate) (HEPES), and sodium bicarbonate), supplemented with antibiotics, bovine serum, hydrocortisone, insulin and minimum essential medium (MEM) nonessential amino acids). After attachment to the collagen matrix, plating medium was replaced with sandwich medium (plating medium supplemented with VITROGEN) and incubated until use.
(§2) The supplemented KHB was replaced with 150 μL supplemented KHB containing the appropriate isoform-selective substrate and incubated for 4 hrs prior to termination by adding 150 μL ice-cold methanol, except for the CYP2C8 incubations which were terminated by adding 150 μL acetonitrile.
(§3) All substrates were dissolved in acetonitrile.
(§4) Replicate trials and controls were performed. […] Additionally, reference control samples were included to evaluate inducibility of CYP2B6, CYP2C9, and CYP2C19 in the test system.
(§5) Mean specific activity values with associated p-values≦0.05 were deemed to be statistically significant.

The target in another data set is CYP2E1 (Homo sapiens, UniProt P05181). Briefly: Chemical inhibition of metaxalone turnover in human liver microsomes, CYP2E1 inhibitor clomethiazole. As to conditions: both, human, microsomes, pH 7.4, Inhibition of metaxalone disappearance (% inhibition of turnover). Background: Liver microsomes are a subcellular fraction often used to study metabolism.
CYP2E1, sequence (P05181 whole entry): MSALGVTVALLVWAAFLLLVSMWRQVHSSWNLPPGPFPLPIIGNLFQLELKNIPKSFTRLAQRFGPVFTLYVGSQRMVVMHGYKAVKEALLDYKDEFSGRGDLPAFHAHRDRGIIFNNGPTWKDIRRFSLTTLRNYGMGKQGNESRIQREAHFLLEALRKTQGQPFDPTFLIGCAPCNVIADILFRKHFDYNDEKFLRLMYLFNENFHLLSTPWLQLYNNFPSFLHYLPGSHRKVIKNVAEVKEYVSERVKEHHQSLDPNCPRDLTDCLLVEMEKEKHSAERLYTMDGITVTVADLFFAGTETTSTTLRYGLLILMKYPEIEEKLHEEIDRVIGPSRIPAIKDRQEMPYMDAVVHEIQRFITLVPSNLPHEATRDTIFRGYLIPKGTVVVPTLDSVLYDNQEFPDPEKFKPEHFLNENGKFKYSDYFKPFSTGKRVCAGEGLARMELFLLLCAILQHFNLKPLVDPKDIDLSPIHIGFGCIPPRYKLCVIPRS
The target of data set [2] is T1, CYP1A2 (Homo sapiens, UniProt P05177).
T1 sequence (P05177 1-516): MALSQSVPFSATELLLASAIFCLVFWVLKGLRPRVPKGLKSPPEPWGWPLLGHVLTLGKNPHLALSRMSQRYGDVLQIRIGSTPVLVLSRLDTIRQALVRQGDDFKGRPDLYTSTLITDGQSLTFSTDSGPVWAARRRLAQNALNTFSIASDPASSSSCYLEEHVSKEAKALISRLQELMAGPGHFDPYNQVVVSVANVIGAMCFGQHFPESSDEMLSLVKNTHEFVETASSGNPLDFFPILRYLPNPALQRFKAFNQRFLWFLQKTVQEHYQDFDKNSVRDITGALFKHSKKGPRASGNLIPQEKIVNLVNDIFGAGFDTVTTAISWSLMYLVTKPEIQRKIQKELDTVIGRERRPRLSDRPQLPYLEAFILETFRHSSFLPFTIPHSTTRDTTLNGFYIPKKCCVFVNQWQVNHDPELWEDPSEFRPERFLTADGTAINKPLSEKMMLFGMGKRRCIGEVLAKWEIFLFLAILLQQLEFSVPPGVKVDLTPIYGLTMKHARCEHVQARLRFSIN
Briefly: Chemical inhibition of metaxalone turnover in human liver microsomes, CYP1A2 selective inhibitor furafylline. As to conditions: both, pooled human liver microsomes.

For the next data set, the target named is CYP3A4 (Homo sapiens, UniProt P08684). The data set is described as follows: in vitro. Conditions: both, pooled human liver microsomes.
CYP3A4, sequence (P08684 whole entry): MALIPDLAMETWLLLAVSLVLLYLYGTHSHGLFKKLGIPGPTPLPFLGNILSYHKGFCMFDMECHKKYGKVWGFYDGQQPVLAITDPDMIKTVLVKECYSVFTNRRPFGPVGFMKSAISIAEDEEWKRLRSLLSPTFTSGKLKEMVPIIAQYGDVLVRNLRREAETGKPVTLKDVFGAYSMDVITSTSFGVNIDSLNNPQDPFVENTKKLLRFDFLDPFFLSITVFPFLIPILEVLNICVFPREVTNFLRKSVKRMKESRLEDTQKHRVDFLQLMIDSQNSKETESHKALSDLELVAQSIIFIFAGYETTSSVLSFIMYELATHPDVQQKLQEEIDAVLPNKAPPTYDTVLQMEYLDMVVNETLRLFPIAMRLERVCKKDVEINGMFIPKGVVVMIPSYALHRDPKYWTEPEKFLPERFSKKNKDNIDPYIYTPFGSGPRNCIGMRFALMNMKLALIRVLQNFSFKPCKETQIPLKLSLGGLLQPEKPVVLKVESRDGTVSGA
The subject of data set [3] is CYP1A2. Briefly: Induction/inhibition of CYP1A2 activity in cryopreserved human hepatocytes after 48 h exposure (phenacetin). As to conditions: human, 48 h, 50 μM.
Source text: as §1, §2, §3, §4, §5

In another data set the test system is CYP2A6. Briefly: Chemical inhibition of metaxalone turnover in human liver microsomes, CYP2A6 inhibitor pilocarpine. As to conditions: both, human, microsomes, pH 7.4, Inhibition of metaxalone disappearance (% inhibition of turnover).
The next data set has as its target T2, CYP2C8 (Homo sapiens, UniProt P10632).
T2 sequence (P10632 1-490): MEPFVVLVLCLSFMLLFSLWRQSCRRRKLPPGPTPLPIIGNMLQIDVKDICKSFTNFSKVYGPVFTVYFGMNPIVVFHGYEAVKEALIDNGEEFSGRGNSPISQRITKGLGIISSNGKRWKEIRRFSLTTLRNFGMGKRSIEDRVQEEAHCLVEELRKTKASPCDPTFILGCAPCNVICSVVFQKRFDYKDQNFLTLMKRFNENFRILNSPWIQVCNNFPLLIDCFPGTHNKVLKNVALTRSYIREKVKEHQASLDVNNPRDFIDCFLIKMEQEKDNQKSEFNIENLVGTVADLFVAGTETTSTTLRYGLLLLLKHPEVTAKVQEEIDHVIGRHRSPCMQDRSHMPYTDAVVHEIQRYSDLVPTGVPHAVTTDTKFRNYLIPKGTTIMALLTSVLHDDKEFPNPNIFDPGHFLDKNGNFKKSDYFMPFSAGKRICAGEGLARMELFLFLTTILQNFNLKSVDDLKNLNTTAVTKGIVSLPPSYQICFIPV
Briefly: Chemical inhibition of metaxalone turnover in human liver microsomes, CYP2C8 inhibitor quercetin. Conditions: both, human, pooled human liver microsomes.

A further data set addresses CYP2C9 (Homo sapiens, UniProt P11712). Briefly: in vitro. Conditions: both, microsomes, pH 7.4, Inhibition of metaxalone disappearance (% inhibition of turnover).
The subject of data set [4] is CYP2B6. Briefly: Chemical inhibition of metaxalone turnover in human liver microsomes, CYP2B6 inhibitor thio-TEPA. Conditions: both, human, microsomes, pH 7.4, Inhibition of metaxalone disappearance (% inhibition of turnover).
Setting [5] is: pH 7.4, probe metaxalone 0.75 μM (disappearance).
Where [6] appears, read: pH 7.4, probe metaxalone 7.5 μM (disappearance).

CYP2C9, sequence (P11712 whole entry): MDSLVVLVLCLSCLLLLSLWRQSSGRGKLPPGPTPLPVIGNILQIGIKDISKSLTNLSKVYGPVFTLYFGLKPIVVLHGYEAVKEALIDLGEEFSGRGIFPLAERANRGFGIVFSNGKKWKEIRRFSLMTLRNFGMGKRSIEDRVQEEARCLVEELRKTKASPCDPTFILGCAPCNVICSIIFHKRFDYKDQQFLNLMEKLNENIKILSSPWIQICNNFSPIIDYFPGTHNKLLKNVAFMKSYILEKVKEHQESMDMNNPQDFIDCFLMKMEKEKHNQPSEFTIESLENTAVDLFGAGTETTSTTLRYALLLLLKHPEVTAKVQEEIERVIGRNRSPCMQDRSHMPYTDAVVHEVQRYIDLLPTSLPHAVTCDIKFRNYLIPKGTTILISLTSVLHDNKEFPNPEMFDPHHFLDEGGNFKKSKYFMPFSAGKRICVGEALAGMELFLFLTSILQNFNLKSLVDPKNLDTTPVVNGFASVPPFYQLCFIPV

Take `CCC1(c2ccccc2)C(=O)NC(=O)NC1=O` [Phenobarbital]: the “induction (reference control)” value in the data set on CYP2B6 [1] was “statistically significant amount of induction”.
With `Cc1ncsc1CCCl` [clomethiazole], the inhibition at 60 min was 113 ± 21% against CYP2E1 (0.75 μM metaxalone) and 98.6 ± 4.9% on CYP2E1 (7.5 μM metaxalone).
For the compound `Cc1nc2c([nH]1)c(=O)n(C)c(=O)n2Cc1ccco1` [furafylline], the inhibition at 60 min against CYP1A2 [2] (setting [5]) was 111 ± 29%; against CYP1A2 [2] (setting [6]) it was 80.6 ± 2.4%.
Regarding `CC(=O)N1CCN(c2ccc(OCC3COC(Cn4ccnc4)(c4ccc(Cl)cc4Cl)O3)cc2)CC1` (stereo not shown) [ketoconazole], the inhibition at 60 min came out at 126 ± 5% at CYP3A4 (setting [5]) and 130 ± 18% at CYP3A4 (setting [6]).
Compound `COc1ccc2[nH]c([S+]([O-])Cc3ncc(C)c(OC)c3C)nc2c1` (stereo not shown) [omeprazole] showed an induction with CYP1A2 [3] not below 200%.
For `CC[C@@H]1C(=O)OC[C@@H]1Cc1cncn1C` [pilocarpine], the results for the inhibition at 60 min in the data set with CYP2A6 (0.75 μM metaxalone) and in the data set on CYP2A6 (7.5 μM metaxalone) were 46.2 ± 5.7% and 50.8 ± 6.9%, respectively.
With `O=c1c(O)c(-c2ccc(O)c(O)c2)oc2cc(O)cc(O)c12` [quercetin], the inhibition at 60 min is 77.2 ± 13.6% against CYP2C8 (setting [5]) and 84.7 ± 18.3% on CYP2C8 (setting [6]).
Regarding `Nc1ccc(S(=O)(=O)Nc2ccnn2-c2ccccc2)cc1` [sulfaphenazole], the inhibition at 60 min turned out to be 81.4 ± 0.3% at CYP2C9 (0.75 μM metaxalone) and 52.8 ± 2.9% against CYP2C9 (7.5 μM metaxalone).
Consider `S=P(N1CC1)(N1CC1)N1CC1` [thio-TEPA], for which the inhibition at 60 min in the data set with CYP2B6 [4] (0.75 μM metaxalone) amounted to 58.3 ± 2.4%; with CYP2B6 [4] (7.5 μM metaxalone), 43.3 ± 13.8%.
